The text below walks through data of PubChem BioAssay (NCI).

Holding throughout (experiment): NCI tumour cell line growth inhibition, 48 h
Test [1] relates to A549 NSCLC.
Test [2] has as its system HCC-2998 colon.
The subject of test [3] is MDA-MB-435.
Test [4] relates to MDA-N.
The subject of test [5] is HS 578T breast.
The test system of test [6] is OVCAR-8 ovarian.
The test system of test [7] is OVCAR-4 ovarian.
Test [8] relates to HCT-15 colon.
Test [9] has as its system SR leukemia.
Test [10] deals with SN12C renal.
The test system of test [11] is HT29 colon.
Test [12] concerns UO-31 renal.
In test [13] the test system is SF-295 CNS.
Test [14] has as its system CAKI-1 renal.
Test [15] concerns OVCAR-5 ovarian.

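Five concentrations, 48 hours, 96-well plates. At the TGI there is no net growth.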 Bounds are passed on as bounds.

For the compound `O=c1[nH]c(Nc2nc3ccccc3[nH]2)nc2c1CCC2`, the TGI in test [1] was greater than 100 µM; in [2], greater than 100 µM; in test [3], greater than 100 µM; in test [4], greater than 100 µM; in [5] it was 63.5 µM; in test [6], greater than 100 µM. In addition, the TGI in test [7], in [8], in test [9], in test [10], in test [11] and in test [12] was greater than 100 µM in each case. Further, the TGI in [13], in test [14] and in test [15] was greater than 100 µM in each case.

For `CC(=O)OCCOCn1cnc2c(Cl)nc(Cl)nc21`, the TGI is 25.6 µM in test [2]; 33.5 µM in [3]; 32.9 µM in test [4]; 40.4 µM in test [5]; 44.2 µM in [6]; 37.5 µM in test [7]. Also, the TGI was 14.5 µM in [8]; 16.1 µM in test [9]; 33.9 µM in [10]; 32.9 µM in test [11]; 36.4 µM in test [12]; 0.832 µM in [14]. Moreover, in [15], the TGI turned out to be 36.9 µM.

With `CC(=O)N[C@@H](Cc1ccc(O)cn1)C(=O)NCc1cccc(Cl)c1`, the TGI in test [1], in test [2], in test [3], in [4], in test [5] and in [7] was greater than 100 µM each time. Further, the TGI in [8], in test [9], in [10], in test [11], in [12] and in [13] was greater than 100 µM in each case. Also, the TGI in test [14] and in test [15] was greater than 100 µM throughout.

As to `CNc1nc2n(CCO)c(-c3ccccc3)c(-c3ccccc3)nc-2c(=O)n1`, the TGI in [1], in test [2], in test [3], in test [4], in test [5] and in test [6] was greater than 50 µM each time. For the same compound, the TGI in [7], in [8], in test [9], in test [10], in test [11] and in test [12] was greater than 50 µM in each case. The TGI in test [13], in [14] and in [15] was greater than 50 µM in each case.

In the case of `Cc1ccc(NC(=S)N/N=C(/c2ccccc2)c2ccccn2)cc1`, the TGI in test [1] came out at 15.7 µM; in test [2] it was 21 µM; in test [3] it was 14.7 µM; in [4] it was 19.5 µM; in test [5], 81.8 µM; in test [6] it was 14 µM. For the same compound, the TGI is 16.6 µM in test [7]; 15.6 µM in test [8]; greater than 20.5 µM in test [9]; 10.1 µM in [10]; 20.3 µM in test [11]; 7.68 µM in test [12]. Moreover, the TGI worked out at 12.7 µM in test [13], 9.48 µM in [14] and 2.07 µM in test [15].

`CC(C)(C)c1ccc(-c2nc3ccc(Cl)cc3c(=O)o2)cc1`: the TGI in test [1] was 53 µM; in test [2], 27.6 µM; in [3], 56.5 µM; in test [4], 64 µM; in test [5] it was greater than 100 µM; in test [6], 49.3 µM. Further, the TGI in [7] is 63.1 µM; in test [8], 49.5 µM; in [9] it was 47.9 µM; in test [10] it was greater than 100 µM; in test [11], 63.8 µM; in test [12] it was 77.6 µM. Moreover, the results for the TGI in test [13], in test [14] and in [15] were 58.1 µM, 63.9 µM and 80.9 µM, respectively.

`NC(CCC(=O)O)C(=O)N1CCN(c2nc(N3CCCC3)c3nc(Cl)c(NCc4ccccc4)nc3n2)CC1` (stereo unspecified): the TGI in test [1] was determined as 26.1 µM; in test [2] it was 24.9 µM; in [3], 26.2 µM; in test [4], 23.1 µM; in [5] it was 60.2 µM; in [6] it was 38.6 µM. The TGI in test [7] came out at 29.1 µM; in test [8] it was 31 µM; in test [9], 17.5 µM; in test [10], 30.7 µM; in test [11], 25.5 µM; in test [12], 21.6 µM. The TGI in test [13] was 26.7 µM; in test [14], 39.6 µM; in [15], 33.5 µM.

As for `COc1ccc(O)c(/C(C)=N/NC(=S)N(C)C)c1`, the TGI in test [1], in test [2], in test [3], in test [4], in [5] and in test [6] was greater than 100 µM in each case. In addition, the TGI is 54.3 µM in test [7]; greater than 100 µM in test [8]; greater than 100 µM in test [9]; greater than 100 µM in test [10]; greater than 100 µM in test [11]; greater than 100 µM in test [12]. The TGI in test [13] was greater than 100 µM; in test [14], greater than 94.5 µM; in test [15], greater than 100 µM.

Turning to `c1ccc2c(c1)nc1n2CNC1`, the TGI in test [1], in test [2], in [3], in test [4], in [5] and in [7] was greater than 100 µM throughout. The TGI in test [8], in test [9], in test [10], in test [11], in test [12] and in test [13] was greater than 100 µM in each case. The TGI in [14] and in [15] was greater than 100 µM in each case.

As to `COc1cc2c(cc1OC)CCc1cc(OC)c(OC)cc1CC2`, the TGI in test [1], in test [2], in test [3], in [4], in [5] and in test [6] was greater than 100 µM in each case. For the same compound, the TGI in [7], in test [8], in test [9], in test [10], in [11] and in test [12] was greater than 100 µM each time. In addition, the TGI in test [13], in test [14] and in test [15] was greater than 100 µM throughout.

For the compound `C=C(CC[C@@H](C)[C@H]1CC[C@@]2(C)C3=C(CC[C@]12C)[C@@]1(C)CC[C@H](O)[C@@H](C)C1CC3)C(C)C` (stereo partly specified), the TGI in test [1] turned out to be 2.32 µM; in test [2], 2.7 µM; in test [3] it was 2.82 µM; in test [4], 2.33 µM; in test [5] it was 3.13 µM; in [6], 3.53 µM. Further, the TGI in [7] turned out to be 3.3 µM; in test [8], 2.5 µM; in test [9] it was 2.71 µM; in [10], 2.72 µM; in test [11], 1.97 µM; in test [12] it was 2.35 µM. In addition, the TGI worked out at 2.27 µM in test [13], 2.26 µM in test [14] and 2.67 µM in [15].

Turning to `O=[N+]([O-])c1cccc2nc3ccccc3c(NCCC[N+]3([O-])CCOCC3)c12`, the TGI in test [1] was 0.871 µM; in test [2] it was 0.0393 µM; in test [3], 0.331 µM; in [4], 0.277 µM; in [5], greater than 100 µM; in test [6], 3.44 µM. Also, the TGI was 0.455 µM in test [7]; 6.42 µM in test [8]; greater than 40.8 µM in test [9]; 0.993 µM in [10]; 0.761 µM in test [11]; 4.59 µM in test [12]. The results for the TGI in test [13], in [14] and in test [15] were 1.38 µM, 12.1 µM and 1.5 µM, respectively.

For `c1ccc(CSP234N5CCN2CCN3CCN4CC5)c(CSP234N5CCN2CCN3CCN4CC5)c1`, the TGI in test [1] was greater than 100 µM; in [2], greater than 100 µM; in test [3] it was greater than 100 µM; in test [4] it was 82.8 µM; in [5], greater than 100 µM; in [6], greater than 100 µM. For the same compound, the TGI in test [7], in test [8], in test [9], in test [10], in test [11] and in test [12] was greater than 100 µM throughout. The TGI in [13], in test [14] and in test [15] was greater than 100 µM in each case.

Turning to `Cc1cc(=O)n2nc(CN3CCCCC3)sc2n1`, the TGI in test [1], in test [2], in test [3], in test [4], in test [5] and in test [6] was greater than 100 µM throughout. Further, the TGI in test [7], in test [8], in test [9], in test [10], in test [11] and in test [12] was greater than 100 µM in each case. The TGI in [13], in test [14] and in test [15] was greater than 100 µM throughout.

For the compound `O=c1[nH]nc(Cc2ccccc2)[nH]1`, the TGI in [1], in test [2], in test [3], in test [4], in [5] and in [6] was greater than 100 µM throughout. Further, the TGI in test [7], in test [8], in test [9], in test [10], in test [11] and in test [12] was greater than 100 µM in each case. Also, the TGI in test [13], in test [14] and in test [15] was greater than 100 µM each time.

On to `C/C=C(/C)C(=O)O[C@H]1C[C@@H]2[C@@H](O)c3occ(C)c3C[C@]2(C)[C@@H](C)C1`, for which the TGI in test [2] amounted to 34 µM; in [3], 33 µM; in [4], 41.7 µM; in test [5] it was 66.7 µM; in [6], 36.9 µM; in test [7], 32.6 µM. Besides, the TGI was determined as 44.3 µM in test [8]; 43.8 µM in test [9]; 27.3 µM in [10]; 31.1 µM in test [11]; 28.9 µM in test [13]; 33.3 µM in test [14]. Moreover, the TGI in test [15] came out at 34.8 µM.

As to `Cc1ccc(N=Nc2c(C)c(C#N)c(=S)n(C3OC(CO)C(O)C(O)C3O)c2C)cc1` (stereo unspecified), the TGI in [1] was greater than 100 µM; in [2], 58.5 µM; in test [3], 81.2 µM; in [4], greater than 100 µM; in test [5], greater than 100 µM; in [7], greater than 100 µM. In addition, the TGI in test [8] is greater than 100 µM; in test [9], greater than 100 µM; in test [10], 94.2 µM; in test [11], greater than 100 µM; in test [12], 98.8 µM; in test [13], greater than 100 µM. Besides, the TGI in test [14] and in [15] was greater than 100 µM throughout.

On to `COC/C=C\[C@]1(O)CCCC[C@@H]1CC(OC)OC`, for which the TGI in test [1], in [2], in test [3], in test [4], in test [5] and in test [6] was greater than 100 µM throughout. In addition, the TGI in test [7], in test [8], in test [9], in [11], in test [12] and in test [13] was greater than 100 µM in each case. Besides, the TGI in test [14] and in [15] was greater than 100 µM each time.

Consider `CNC(=O)N1CN(c2ccccc2)C2(CCN(CCCC3(c4ccc(F)cc4)OCCO3)CC2)C1=O`, for which the TGI in [1], in test [2], in [3], in [4], in test [5] and in [7] was greater than 100 µM in each case. The TGI in test [8], in test [9], in test [10], in [11], in test [12] and in test [13] was greater than 100 µM each time. Moreover, the TGI in test [14] and in [15] was greater than 100 µM each time.
